≈ marks a conversion by molar mass, not a printed value. Read-outs that look alike come from different tables or passages of the source.
Legend:
[1] = system: B. catarrhalis W-0500; experiment: MIC, agar plate dilution method; format: cell-based; conditions: Moraxella catarrhalis
Procedure: (§1) The effect of the first aspect of the present invention resides in the creation of a novel and useful 16-membered macrolide derivative. Antimicrobial activities of the compounds of the present invention were determined by measuring minimum inhibitory concentration (MIC). Minimum inhibitory concentration was determined by the agar plate dilution method in the following manner.
(§2) Test strains were subjected to seed culture using Sensitivity test broth (STB, Nissui Pharmaceutical) except that the strains belonging to the genus Streptococcus, Branhamella and Haemophilus were cultured on blood agar plate. A 5 μl portion of cell suspension of the test strains having about 10^6 CFU/ml was inoculated into Sensitivity disk agar (SDA, Nissui Pharmaceutical) supplemented with 5% horse blood and incubated at 37° C. for 20 hours. Then, MIC was measured. […] Antimicrobial activities in vitro of the compounds (1) and (2) are shown in Table 1, and those of the compounds (3) and (4) in Table 3.

[2] = system: B. catarrhalis W-0506; experiment: MIC, agar plate dilution method; format: cell-based; conditions: for MIC: Moraxella catarrhalis
Procedure: as §1, §2

[3] = system: E. faecalis W-73; experiment: MIC, agar plate dilution method; format: cell-based; conditions: Enterococcus faecalis, W73, 20 h, read-out: Antimicrobial activity (MIC)
Procedure: as §1, §2

[4] = system: H. influenzae Type b; experiment: MIC, agar plate dilution method; format: cell-based; conditions: Haemophilus influenzae
Procedure: as §1, §2

[5] = system: K. pneumoniae PCI602; experiment: MIC, agar plate dilution method; format: cell-based; conditions: 37° C., SDA with 5% horse blood; for MIC: Klebsiella pneumoniae, PCI602, 20 h, read-out: Antimicrobial activity (MIC)
Procedure: as §1, §2

[6] = system: M. luteus ATCC9341; experiment: MIC, agar plate dilution method; format: cell-based; conditions: Micrococcus luteus
Procedure: as §1, §2

[7] = system: S. aureus 209P JC-1; experiment: MIC, agar plate dilution method; format: cell-based; conditions: for MIC: Staphylococcus aureus, 209P, 20 h
Procedure: as §1, §2

[8] = system: S. aureus M126; experiment: MIC, agar plate dilution method; format: cell-based; conditions: Staphylococcus aureus, 37° C., 20 hours, SDA with 5% horse blood, read-out: Antimicrobial activity (MIC)
Procedure: as §1, §2

[9] = system: S. aureus M133; experiment: MIC, agar plate dilution method; format: cell-based; conditions: Staphylococcus aureus, M133, 20 h, read-out: Antimicrobial activity (MIC), 37° C., 20 hours, SDA with 5% horse blood
Procedure: as §1, §2

[10] = system: S. aureus MS15009/pMS98; experiment: MIC, agar plate dilution method; format: cell-based; conditions: Staphylococcus aureus, MS15009/PMS98, 20 h, read-out: Antimicrobial activity (MIC), 37° C., 20 hours, SDA with 5% horse blood
Procedure: as §1, §2

[11] = system: S. aureus MS15009/pMS99; experiment: MIC, agar plate dilution method; format: cell-based; conditions: Staphylococcus aureus, MS15009/PMS99, 20 h, read-out: Antimicrobial activity (MIC)
Procedure: as §1, §2

[12] = system: S. aureus MS15026; experiment: MIC, agar plate dilution method; format: cell-based; conditions: Staphylococcus aureus, 37° C., 20 hours, SDA with 5% horse blood, read-out: Antimicrobial activity (MIC)
Procedure: as §1, §2

[13] = system: S. aureus MS15027; experiment: MIC, agar plate dilution method; format: cell-based; conditions: Staphylococcus aureus
Procedure: as §1, §2

[14] = system: S. epidermidis ATCC14990; experiment: MIC, agar plate dilution method; format: cell-based; conditions: Staphylococcus epidermidis, ATCC14990, 20 h, read-out: Antimicrobial activity (MIC), 37° C., 20 hours, SDA with 5% horse blood
Procedure: as §1, §2

[15] = system: S. pneumoniae IP692; experiment: MIC, agar plate dilution method; format: cell-based; conditions: Streptococcus pneumoniae, IP692, 20 h
Procedure: as §1, §2

[16] = system: S. pneumoniae Type 1; experiment: MIC, agar plate dilution method; format: cell-based; conditions: Streptococcus pneumoniae
Procedure: as §1, §2

[17] = system: test strains; experiment: Antimicrobial activity in vitro, test strains overall; format: cell-based
Procedure: as §1, §2

[18] = system: Streptococcus pneumoniae; experiment: Antimicrobial activity in vitro; format: cell-based; conditions: compared with MDM and LM-A7
Procedure: as §1, §2

[19] = system: clinically important Gram-positive bacteria; experiment: Antimicrobial activity / growth inhibition; format: cell-based
Procedure: as §1, §2

[20] = system: Branhamella catarrhalis; experiment: Antimicrobial activity in vitro; format: cell-based; conditions: vs compound (5)
Procedure: as §1, §2

[21] = system: B. catarrhalis W-0400; experiment: MIC, agar plate dilution method; format: cell-based; conditions: Moraxella catarrhalis, W0400, 20 h, read-out: Antimicrobial activity (MIC)
Procedure: as §1, §2

[22] = system: E. coli NIHJ JC-2; experiment: MIC, agar plate dilution method; format: cell-based; conditions: 37° C., SDA with 5% horse blood; for MIC: Escherichia coli, NIHJJC2, 20 h, read-out: Antimicrobial activity (MIC)
Procedure: as §1, §2

[23] = system: H. influenzae 9334; experiment: MIC, agar plate dilution method; format: cell-based
Procedure: as §1, §2

[24] = system: S. pyogenes Cook; experiment: MIC, agar plate dilution method; format: cell-based; conditions: Streptococcus pyogenes
Procedure: as §1, §2

[25] = literature; cited from earlier work
[26] = W0500, 20 h, read-out: Antimicrobial activity (MIC), 37° C., 20 hours, SDA with 5% horse blood
[27] = W0506, 20 h, read-out: Antimicrobial activity (MIC), 37° C., 20 hours, SDA with 5% horse blood
[28] = 37° C., 20 hours, SDA with 5% horse blood
[29] = 20 h, read-out: Antimicrobial activity (MIC), 37° C., 20 hours, SDA with 5% horse blood
[30] = ATCC9341, 37° C., 20 hours, SDA with 5% horse blood, read-out: Antimicrobial activity (MIC)
[31] = read-out: Antimicrobial activity (MIC), 37° C., 20 hours, SDA with 5% horse blood
[32] = MS15027, 20 h, read-out: Antimicrobial activity (MIC), 37° C., 20 hours, SDA with 5% horse blood
[33] = TYPE1, 20 h, read-out: Antimicrobial activity (MIC), 37° C., 20 hours, SDA with 5% horse blood
[34] = Haemophilus influenzae, 9334, 20 h, read-out: Antimicrobial activity (MIC), 37° C., 20 hours, SDA with 5% horse blood
[35] = 37° C., 20 hours, SDA with 5% horse blood, read-out: Antimicrobial activity (MIC)
[36] = TYPE1, 37° C., 20 hours, SDA with 5% horse blood, read-out: Antimicrobial activity (MIC)

SMILES	MIC [1, 26]	MIC [2, 27]	MIC [4, 29]	MIC [5]	MIC [6, 30]	MIC [7, 31]	MIC [8]	MIC [9]	MIC [10]	MIC [11]	MIC [12]	MIC [13, 32]	MIC [14]	MIC [15, 31]	MIC [16, 33]	MIC [21]	MIC [22]	MIC [3]	MIC [23, 34]	MIC [7, 35]	other results
CCC(=O)O[C@@H]1CC(=O)O[C@H](C)C/C=C/C=C/[C@H](O)[C@H](C)C[C@H](CC=O)[C@H](O[C@@H]2O[C@H](C)[C@@H](O[C@H]3C[C@@](C)(OC)[C@@H](OC(=O)CC)[C@H](C)O3)[C@H](N(C)C)[C@H]2O)[C@H]1OC [(1), 3"-O-methylmidecamycin A1]	0.78 µg/mL (≈ 0.942 µM)	0.78 µg/mL (≈ 0.942 µM)	12.5 µg/mL (≈ 15.1 µM)	> 100 µg/mL	0.05 µg/mL (≈ 0.0604 µM)	0.2 µg/mL (≈ 0.242 µM)	> 100 µg/mL	0.39 µg/mL (≈ 0.471 µM)	0.2 µg/mL (≈ 0.242 µM)	> 100 µg/mL	> 100 µg/mL	0.39 µg/mL (≈ 0.471 µM)	0.78 µg/mL (≈ 0.942 µM)	0.1 µg/mL (≈ 0.121 µM)	0.1 µg/mL (≈ 0.121 µM)						MIC [3, 28]: 1.56 µg/mL (≈ 1.88 µM); antimicrobial activities in vitro compared with corresponding compounds having free 3"-hydroxyl (MDM, LM-A7) ([17]; against most of test strains): twice as high; antimicrobial activity against Streptococcus pneumoniae [18]: considerably improved antimicrobial activity; antimicrobial activities (in words) [19]: strong antimicrobial activities
CO[C@@H]1[C@@H](O[C@@H]2O[C@H](C)[C@@H](O[C@H]3C[C@@](C)(OC)[C@@H](OC(=O)CC(C)C)[C@H](C)O3)[C@H](N(C)C)[C@H]2O)[C@@H](CC=O)C[C@@H](C)[C@@H](OC(C)=O)/C=C/C=C/C[C@@H](C)OC(=O)C[C@H]1OC(C)=O [(11), 9-O-acetyl-3"-O-methyljosamycin]																					antimicrobial activities in vitro compared with miokamycin ([17]; vs miokamycin (MOM)): comparable to or higher; antimicrobial activity against Branhamella catarrhalis compared with compound (5) [20]: slightly superior to that of the compound (5)
CCCC(=O)O[C@H]1[C@H](C)O[C@@H](O[C@H]2[C@H](N(C)C)[C@@H](O)[C@H](O[C@H]3[C@@H](CC=O)C[C@@H](C)[C@@H](O)/C=C/C=C/C[C@@H](C)OC(=O)C[C@@H](O)[C@@H]3OC)O[C@@H]2C)C[C@@]1(C)OC [(33), 3"-O-methylleucomycin A5]		0.2 µg/mL (≈ 0.254 µM)		100 µg/mL (≈ 127 µM)	< 0.025 µg/mL		> 100 µg/mL	0.2 µg/mL (≈ 0.254 µM)	0.1 µg/mL (≈ 0.127 µM)	> 100 µg/mL	> 100 µg/mL	0.2 µg/mL (≈ 0.254 µM)	0.2 µg/mL (≈ 0.254 µM)			0.1 µg/mL (≈ 0.127 µM)	> 100 µg/mL	0.78 µg/mL (≈ 0.992 µM)	0.2 µg/mL (≈ 0.254 µM)	0.05 µg/mL (≈ 0.0636 µM)	MIC [4, 35]: 1.56 µg/mL (≈ 1.98 µM); MIC [15, 35]: < 0.025 µg/mL; MIC [16, 36]: < 0.025 µg/mL; MIC [24, 35]: < 0.025 µg/mL; antimicrobial activities compared with clarithromycin ([17]; vs clarithromycin): completely comparable to those of clarithromycin; antimicrobial activities in comparison with compound (2) ([17]; vs compound (2)): generally improved antimicrobial activities; antimicrobial activities in comparison with rokitamycin ([17]; vs rokitamycin): markedly excellent antimicrobial activities in vitro
CC[C@H]1OC(=O)[C@H](C)[C@@H](O[C@H]2C[C@@](C)(OC)[C@@H](O)[C@H](C)O2)[C@H](C)[C@@H](O[C@@H]2O[C@H](C)C[C@H](N(C)C)[C@H]2O)[C@](C)(OC)C[C@@H](C)C(=O)[C@H](C)[C@@H](O)[C@]1(C)O [CAM, clarithromycin, reference compound]	0.2 µg/mL (≈ 0.267 µM)	0.2 µg/mL (≈ 0.267 µM)	6.25 µg/mL (≈ 8.36 µM)	100 µg/mL (≈ 134 µM)	< 0.025 µg/mL		> 100 µg/mL		> 100 µg/mL	> 100 µg/mL	> 100 µg/mL	> 100 µg/mL	0.1 µg/mL (≈ 0.134 µM)			0.1 µg/mL (≈ 0.134 µM)	100 µg/mL (≈ 134 µM)	0.78 µg/mL (≈ 1.04 µM)		0.05 µg/mL (≈ 0.0668 µM)	Antimicrobial activity (MIC) [2, 28]: 0.10 µg/mL; Antimicrobial activity (MIC) ([22]; 20 hours): 50 µg/mL; MIC ([23]; Haemophilus influenzae, 9334, 37° C., 20 hours, SDA with 5% horse blood, read-out: Antimicrobial activity (MIC)): 1.56 µg/mL (≈ 2.09 µM); Antimicrobial activity (MIC) ([5]; 20 hours): 50 µg/mL; Antimicrobial activity (MIC) [7, 28]: 0.10 µg/mL; MIC ([13]; MS15027, 37° C., 20 hours, SDA with 5% horse blood, read-out: Antimicrobial activity (MIC)): 1.56 µg/mL (≈ 2.09 µM); MIC [15, 35]: < 0.025 µg/mL; MIC [16, 36]: < 0.025 µg/mL; MIC [24, 35]: < 0.025 µg/mL
CCC(=O)O[C@@H]1CC(=O)O[C@H](C)C/C=C/C=C/[C@H](OC(C)=O)[C@H](C)C[C@H](CC=O)[C@H](O[C@@H]2O[C@H](C)[C@@H](O[C@H]3C[C@@](C)(OC(C)=O)[C@@H](OC(=O)CC)[C@H](C)O3)[C@H](N(C)C)[C@H]2O)[C@H]1OC [MOM, miokamycin, reference compound]			50 µg/mL (≈ 55.7 µM)	> 100 µg/mL		0.39 µg/mL (≈ 0.434 µM)	> 100 µg/mL	0.78 µg/mL (≈ 0.869 µM)	0.78 µg/mL (≈ 0.869 µM)	> 100 µg/mL	> 100 µg/mL	0.78 µg/mL (≈ 0.869 µM)	0.78 µg/mL (≈ 0.869 µM)	0.2 µg/mL (≈ 0.223 µM)	0.2 µg/mL (≈ 0.223 µM)		> 100 µg/mL	6.25 µg/mL (≈ 6.96 µM)	6.25 µg/mL (≈ 6.96 µM)		MIC ([1]; W0500, 37° C., 20 hours, SDA with 5% horse blood, read-out: Antimicrobial activity (MIC)): 1.56 µg/mL (≈ 1.74 µM); MIC ([2]; W0506, 37° C., 20 hours, SDA with 5% horse blood, read-out: Antimicrobial activity (MIC)): 1.56 µg/mL (≈ 1.74 µM); MIC ([6]; ATCC9341, 20 h, read-out: Antimicrobial activity (MIC), 37° C., 20 hours, SDA with 5% horse blood): 0.1 µg/mL (≈ 0.111 µM); MIC [24, 29]: 0.2 µg/mL (≈ 0.223 µM); metabolism and loss of antimicrobial activity after oral administration [25]: an acyl group of a neutral sugar moiety of the administered drug is cleaved with time and antimicrobial activities of the drug itself therefore is reduced gradually

From patent US5602106A, “16-membered macrolide derivatives” (priority 1993, dated 1997)
